Marks after values point to notes of the source that are not given here.
Assays:
[1] = biological target: T1, human Her2 exon 20 insertion mutation YVMA (Homo sapiens, UniProt P04626, INS775YVMA); assay: Her2 Exon 20 YVMA insertion cellular phosphorylation inhibition (MSD p-Her2 Y1248/total Her2); format: cell-based; settings: Her2 YVMAins cells, 4 h compound;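 note: lentivirally transduced NIH-3T3 cells in 1% FBS medium, electrochemiluminescent MSD read-out, graded compound concentrations at 37 °C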
T1 construct: expressed in transfected cells; host or cells: NIH-3T3, lentiviral transduction, puromycin selection
T1 sequence (P04626 with tags, fused parts or gaps INS775YVMA): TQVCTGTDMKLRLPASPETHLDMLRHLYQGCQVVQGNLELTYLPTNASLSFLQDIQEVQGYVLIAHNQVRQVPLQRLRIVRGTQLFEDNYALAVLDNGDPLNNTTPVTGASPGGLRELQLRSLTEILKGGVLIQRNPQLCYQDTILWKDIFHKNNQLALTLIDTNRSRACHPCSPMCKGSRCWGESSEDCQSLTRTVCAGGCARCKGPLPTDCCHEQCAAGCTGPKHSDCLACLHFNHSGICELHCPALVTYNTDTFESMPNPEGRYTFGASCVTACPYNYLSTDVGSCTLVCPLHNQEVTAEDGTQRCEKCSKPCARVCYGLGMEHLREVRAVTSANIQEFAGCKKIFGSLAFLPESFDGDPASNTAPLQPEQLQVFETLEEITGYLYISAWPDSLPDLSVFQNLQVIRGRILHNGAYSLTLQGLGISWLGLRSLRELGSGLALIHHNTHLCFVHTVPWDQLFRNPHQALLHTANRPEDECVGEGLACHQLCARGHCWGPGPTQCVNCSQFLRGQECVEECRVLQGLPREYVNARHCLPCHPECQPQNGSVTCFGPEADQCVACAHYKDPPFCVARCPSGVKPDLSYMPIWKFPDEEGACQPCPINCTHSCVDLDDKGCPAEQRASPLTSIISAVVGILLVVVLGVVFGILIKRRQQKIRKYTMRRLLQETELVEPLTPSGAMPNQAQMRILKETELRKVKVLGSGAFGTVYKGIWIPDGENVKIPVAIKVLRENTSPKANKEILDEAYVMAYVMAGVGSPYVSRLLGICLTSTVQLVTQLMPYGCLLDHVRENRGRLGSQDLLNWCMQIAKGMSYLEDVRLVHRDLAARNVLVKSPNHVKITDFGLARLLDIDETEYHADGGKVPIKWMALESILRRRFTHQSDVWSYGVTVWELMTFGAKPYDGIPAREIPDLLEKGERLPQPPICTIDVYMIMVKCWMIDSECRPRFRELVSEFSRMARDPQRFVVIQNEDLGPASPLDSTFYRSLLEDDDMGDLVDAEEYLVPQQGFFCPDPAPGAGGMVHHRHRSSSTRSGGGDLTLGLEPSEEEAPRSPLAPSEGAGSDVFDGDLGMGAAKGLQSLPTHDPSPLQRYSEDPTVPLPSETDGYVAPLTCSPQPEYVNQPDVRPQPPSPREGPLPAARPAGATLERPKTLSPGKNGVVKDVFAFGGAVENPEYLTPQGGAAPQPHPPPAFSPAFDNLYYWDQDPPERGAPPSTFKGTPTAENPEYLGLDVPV

WT EGFR = biological target: T2, WT EGFR (Homo sapiens, UniProt P00533); assay: WT EGFR cellular phosphorylation inhibition in A-431 (hEGF stimulated, MSD); format: cell-based; settings: A431 cells, 4 h compound, then 100 ng/ml hEGF 10 min;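 note: electrochemiluminescence read-out of EGFR Tyr1068 phosphorylation expressed as ratio to total EGFR, cells kept in medium with 1% FBS, compounds tested as a concentration series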
T2 construct: host or cells: A-431
T2 sequence (P00533 25-1210): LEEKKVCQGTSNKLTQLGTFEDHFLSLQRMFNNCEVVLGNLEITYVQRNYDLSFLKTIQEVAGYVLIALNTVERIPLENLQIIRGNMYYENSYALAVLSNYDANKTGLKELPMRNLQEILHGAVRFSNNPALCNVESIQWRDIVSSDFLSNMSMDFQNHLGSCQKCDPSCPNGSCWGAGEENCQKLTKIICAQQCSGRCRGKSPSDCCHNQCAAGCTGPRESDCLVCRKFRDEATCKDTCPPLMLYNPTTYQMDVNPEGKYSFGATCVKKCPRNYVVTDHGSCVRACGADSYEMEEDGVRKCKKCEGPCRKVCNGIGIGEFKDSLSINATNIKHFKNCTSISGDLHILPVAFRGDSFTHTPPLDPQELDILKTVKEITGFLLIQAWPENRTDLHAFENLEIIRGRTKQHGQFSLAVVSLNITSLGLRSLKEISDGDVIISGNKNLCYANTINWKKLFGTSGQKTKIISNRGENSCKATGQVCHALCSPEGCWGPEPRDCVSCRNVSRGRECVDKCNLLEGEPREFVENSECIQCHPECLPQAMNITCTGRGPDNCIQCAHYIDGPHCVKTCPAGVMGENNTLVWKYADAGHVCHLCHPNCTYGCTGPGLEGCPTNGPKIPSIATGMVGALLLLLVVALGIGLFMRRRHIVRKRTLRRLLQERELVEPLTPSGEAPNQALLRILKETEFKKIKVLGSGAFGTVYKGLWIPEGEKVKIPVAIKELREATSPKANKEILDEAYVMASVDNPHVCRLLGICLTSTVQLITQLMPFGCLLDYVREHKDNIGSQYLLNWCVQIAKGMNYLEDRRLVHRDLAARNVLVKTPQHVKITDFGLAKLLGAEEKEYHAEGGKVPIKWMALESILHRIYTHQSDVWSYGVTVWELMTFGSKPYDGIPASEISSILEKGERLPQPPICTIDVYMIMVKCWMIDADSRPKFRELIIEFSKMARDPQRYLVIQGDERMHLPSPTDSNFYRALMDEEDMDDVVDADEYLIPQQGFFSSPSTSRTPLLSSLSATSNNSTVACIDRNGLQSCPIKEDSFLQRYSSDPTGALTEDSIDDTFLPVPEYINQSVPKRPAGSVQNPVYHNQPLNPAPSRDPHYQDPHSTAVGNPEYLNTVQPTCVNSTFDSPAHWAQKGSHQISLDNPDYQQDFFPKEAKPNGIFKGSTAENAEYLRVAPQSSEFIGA

Ba/F3 EGFR NPH ins cells = assay: Cell proliferation, Ba/F3 EGFR NPH ins (CellTiter-Glo, 72 h); format: cell-based; settings: Ba/F3 EGFR, 72 h, Ba/F3 EGFR NPH ins, 72 h proliferation; read-out: EGFR Exon20 NPH insertion GI50;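 note: IL3-independent cells carrying constitutively phosphorylated EGFR, compound dilution series, viable cells quantified by ATP luminescence, growth relative to DMSO wells after subtracting pre-dosing (day 0) baseline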
Ba/F3 EGFR ASV ins cells = assay: Cell proliferation, Ba/F3 EGFR ASV ins (CellTiter-Glo, 72 h); format: cell-based; settings: Ba/F3 EGFR, 72 h, Ba/F3 EGFR ASV ins, 72 h proliferation; read-out: EGFR Exon20 ASV insertion GI50;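 note: IL3-independent Ba/F3 cells transduced with EGFR V769_D770insASV, cellular ATP luminescence after compound exposure, growth relative to DMSO control with the day-0 baseline reading subtracted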
[2] = test system: NCI-H1975 EGFR L858R/T790M cells; assay: Cell proliferation, NCI-H1975 EGFR L858R/T790M (CellTiter-Glo, 72 h); format: cell-based; settings: Homo sapiens, NCI-H1975, 72 h, NCI-H1975, 72 h proliferation; read-out: EGFR L858R and T790M mutation GI50;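 note: viable cells quantified by luciferase-based ATP luminescence, proliferation expressed relative to DMSO-treated wells (100%) after subtracting a parallel plate read at the time of dosing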
WT EGFR cell line A-431 = assay: Cell proliferation, WT EGFR A431 (CellTiter-Glo, 72 h); format: cell-based; settings: Homo sapiens, A-431, 72 h, A431, 72 h proliferation; read-out: EGFR WT A431 GI50;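 note: proliferation from a luminescent ATP viability signal, expressed as 100 × (treated minus time-zero plate) over (DMSO control minus time-zero plate), cells grown with 10% FBS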
TMD-8 cells = assay: BTK (wt) cell proliferation, TMD-8 (CellTiter-Glo, 72 h); format: cell-based; settings: Homo sapiens, TMD8, 72 h, TMD-8 cells, 72 h, CellTiter-Glo; read-out: BTK WT TMD-8 GI50;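 note: viable cells quantified by ATP-based luminescence, proliferation expressed as percent of DMSO control after subtracting a time-zero baseline plate read at dosing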
DB cells = assay: BTK (wt) cell proliferation, DB (CellTiter-Glo, 72 h); format: cell-based; settings: Homo sapiens, DB, DB cells, CellTiter-Glo, read-out: Non-BCR activated DB GI50;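 note: DB cells in 384-well plates given a dilution series of compound, viable cells read by ATP luminescence, growth expressed versus DMSO control after subtracting a time-zero plate reading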
Phospho-BTK (Tyr223) = biological target: T3, Phospho-BTK (Tyr223) (Homo sapiens, UniProt Q06187); assay: p-BTK assay in Ramos cells (HTRF Phospho-BTK Tyr223); format: cell-based; settings: pervanadate stimulated, read-out: p-BTK (Romas) IC50
T3 construct: endogenous in cells; host or cells: Ramos
T3 sequence (Q06187 whole entry): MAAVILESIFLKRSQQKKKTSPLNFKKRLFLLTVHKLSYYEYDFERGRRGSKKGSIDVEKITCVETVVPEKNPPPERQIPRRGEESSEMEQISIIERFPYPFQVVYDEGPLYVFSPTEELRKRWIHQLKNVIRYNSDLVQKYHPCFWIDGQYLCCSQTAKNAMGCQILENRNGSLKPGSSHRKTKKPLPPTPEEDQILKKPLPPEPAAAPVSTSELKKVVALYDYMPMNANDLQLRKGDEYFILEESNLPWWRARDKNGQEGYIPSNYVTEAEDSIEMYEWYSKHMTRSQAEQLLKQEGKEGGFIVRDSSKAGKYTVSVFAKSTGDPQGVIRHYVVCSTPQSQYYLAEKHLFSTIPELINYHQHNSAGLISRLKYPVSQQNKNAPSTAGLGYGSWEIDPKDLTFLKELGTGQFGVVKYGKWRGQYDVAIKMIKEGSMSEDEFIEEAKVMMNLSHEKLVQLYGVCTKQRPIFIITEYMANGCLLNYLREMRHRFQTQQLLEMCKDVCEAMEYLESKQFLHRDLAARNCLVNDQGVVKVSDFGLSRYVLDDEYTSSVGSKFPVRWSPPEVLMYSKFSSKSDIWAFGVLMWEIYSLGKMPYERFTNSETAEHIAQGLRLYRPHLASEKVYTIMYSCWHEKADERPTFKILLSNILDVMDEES
Experimental: The assay plates were then incubated for 30 minutes at 37° C., 5% CO2. 300 uM Per vanadate (3X) was added to each well and the assay plates were again incubated for 60 minutes at 37° C., 5% CO2. Phospho-BTK (Tyr223) is detected using the HTRF® reagents (Cisbio) according to the manufacturer’s one-plate assay protocol.

BTK [3] = biological target: T4, BTK (Homo sapiens, UniProt Q06187); assay: BTK target site occupancy ELISA (PBMC); format: cell-based; settings: BTK receptor occupancy
T4 sequence (Q06187 whole entry): as above
Experimental: (§1) An enzyme-linked immunosorbent assay (ELISA) method for the detection of free uninhibited Btk in mouse and human lysates. Human or mouse whole blood were incubated with compound for 2 hour at 37° C. Whole blood were lysed in ice-cold lysis buffer containing 50 mM Tris-HCl, pH 7.5, 150 mM NaCl, 1 mM EDTA,1% Triton X-100. […] Samples were transferred to a streptavidin-coated 96-well ELISA plate and mixed while shaking for 1 hour at room temperature. The α-Btk antibody (1:500; clone number D3H5, Cell signaling Technology, Danvers, MA, USA) was then added to the well and incubated for 1 hour at room temperature. After wash, goat α-rabbit-FW (1:5000 dilution in PBS+ 0.05% Tween-20 + 1% BSA) was added to each well and incubated for 1 h at room temperature. The ELISA was developed with addition of tetramethyl benzidine (TMB) followed by Stop Solution and read at OD 450 nm.

[4] = Rat pharmacokinetic study after oral administration (SOA); format: in vivo; settings: male Han Wistar rats
Experimental: For rat pharmacokinetic studies, six male Han Wistar rats were purchased from Beijing Vital River and orally dosed with the test compound at 10 mg/kg in 0.5% Tween-80 and 0.5% hydroxypropyl methylcellulose (v/w). At, 0.5, 1, 2, 4, 7 and 16 hours post-dose, blood samples (>100 µL/time point) were collected from portal vein and via cardiac puncture into separate K2EDTA […] tubes, and then immediately centrifuged at 1500 g, 5 min at 4° C. to separate plasma. The plasma samples were deproteinized with 4 fold acetonitrile (including internal standard), vortex for 10 min and centrifuges for 10 minutes at 4000 g at 4° C.. The supernatantswere submitted to LC/MS/MS (API 5500, Applied Biosystems, Foster City) analysis. Two sets of standard curves were run at the beginning and end of each batch from plasma sample analysis.
Compound absorption was measured by portal vein AUC (AUCHPV) and systemic AUC (AUCSYS) observed maximum concentration (Cmax) in rats after oral administration. Dose is the actual dose used in SOA study. Find below in Table 9 data for exemplary tested compounds.

[5] = test system: NSCLC with EGFR Exon20ins; assay: Anti-tumor activity in platinum-pretreated NSCLC patients with EGFR Exon20 insertion mutations; format: in vivo, human
Description: Compound 52 is a rationally designed, oral, EGFR Exon20 insertion (Exon20ins) inhibitor, with wild-type EGFR selectivity. […] Compound 52 is currently in late stage development with multiple pivotal studies ongoing globally as ≥ 2nd line treatment after platinum-containing chemotherapies and 1st line for treatment naive patients. Results from multicenter, multi-arm, global studies are presented herein.
A total of 119 evaluable platinum-pretreated NSCLC patients with EGFR Exon20ins were included in efficacy set.

[6] = test system: NSCLC with EGFR sensitizing, double or uncommon mutation; assay: Anti-tumor activity in NSCLC patients with EGFR mutation beyond Exon20ins; format: in vivo, human; settings: 50-400 mg once daily oral
Experimental: Compound 52 was explored at 50 mg, 100 mg, 200 mg, 300 mg and 400 mg once daily with oral administration in 12 non-small cell lung cancer (NSCLC) patients with EGFR sensitizing mutation (L858R or 19del), sensitizing (L858R or 19del) and T790M double mutation (double mutation) or less common non-resistant mutation (uncommon mutation, including Gly719Xaa, Leu861Gln, or Ser768Ile mutation). […] In 2 patients with uncommon mutation, 1 SD and 1 PD was observed after Compound 52 treatment.

BTK [7] = biological target: T4, BTK; assay: BTK target site occupancy ELISA (Ramos); format: cell-based; design: endogenous in cells; host or cells: Ramos; settings: BTK receptor occupancy, read-out: Occupancy (Romas) IC50
Experimental: as §1

[8] = 50 mg (N = 3), post platinum-based chemotherapy
[9] = 100 mg (N = 2), post platinum-based chemotherapy
[10] = 200 mg (N = 21), post platinum-based chemotherapy
[11] = 300 mg (N = 84), post platinum-based chemotherapy
[12] = 400 mg (N = 9), post platinum-based chemotherapy
[13] = Total (N = 119), post platinum-based chemotherapy
[14] = 2 patients with uncommon mutation
[15] = 4 NSCLC patients with EGFR sensitizing mutation
[16] = 5 NSCLC patients with EGFR double mutation

## C=CC(=O)Nc1cc(Nc2nccc(Nc3cc(Cl)c(F)cc3C(C)(C)O)n2)c(OC)cc1N1CC[C@@H](N(C)C)C1 [Compound 52, (R)-N-(5-(4-(5-chloro-4-fluoro-2-(2-hydroxypropan-2-yl)phenylamino)pyrimidin-2-ylamino)-2-(3-(dimethylamino)pyrrolidin-1-yl)-4-methoxyphenyl)a crylamide]
[1]
  IC50: 7.5 nM
WT EGFR
  IC50: 80.4 nM
Ba/F3 EGFR NPH ins cells
  GI50: 60.4 nM
Ba/F3 EGFR ASV ins cells
  GI50: 83.2 nM
[2]
  GI50: 3.3 nM
WT EGFR cell line A-431
  GI50: 47.1 nM
TMD-8 cells
  GI50: 5.8 nM
DB cells
  GI50: 1980 nM
Phospho-BTK (Tyr223)
  IC50: 2.9 nM
BTK [3]
  IC50: 2.9 nM
[4]; dose-normalised systemic AUC
  SOA DN AUCSYS (ng·h/mL)/(mg/kg): 103 (ng·h/mL)/(mg/kg)
[4]; rat, plasma, nominal 10 mg/kg (actual dose in c1)
  Cmax: 99 ng/mL
[5]; [8]
  Best Objective Response Rate, PD (progressive disease): 1 (33.3) n(%)
  Best Objective Response Rate, PR: 0 (0.0) n(%)
  Best Objective Response Rate, PR, confirmed: 0 (0.0) n(%)
  Best Objective Response Rate, PR, pending confirmation: 0 (0.0) n(%)
  Best Objective Response Rate, SD (stable disease): 2 (66.7) n(%)
[5]; [9]
  Best Objective Response Rate, PD (progressive disease): 0 (0.0) n(%)
  Best Objective Response Rate, PR: 1 (50.0) n(%)
  Best Objective Response Rate, PR, confirmed: 1 (50.0) n(%)
  Best Objective Response Rate, PR, pending confirmation: 0 (0.0) n(%)
  Best Objective Response Rate, SD (stable disease): 1 (50.0) n(%)
[5]; [10]
  Best Objective Response Rate, PD (progressive disease): 3 (14.3) n(%)
  Best Objective Response Rate, PR: 10 (47.6) n(%)
  Best Objective Response Rate, PR, confirmed: 7 (33.3) n(%)
  Best Objective Response Rate, PR, pending confirmation: 2 (9.5)* n(%)
  Best Objective Response Rate, SD (stable disease): 9 (42.9) n(%)
[5]; [11]
  Best Objective Response Rate, PD (progressive disease): 9 (10.7) n(%)
  Best Objective Response Rate, PR, confirmed: 32 (38.1) n(%)
  Best Objective Response Rate, PR, pending confirmation: 8 (9.5)* n(%)
  Best Objective Response Rate, SD (stable disease): 35 (41.7) n(%)
[5]; 300 mg once daily, 44/84 patients, post platinum-based chemotherapy
  best Overall Response Rate (ORR): 52.4%
[5]; [12]
  Best Objective Response Rate, PD (progressive disease): 2 (22.2) n(%)
  Best Objective Response Rate, PR: 2 (22.2) n(%)
  Best Objective Response Rate, PR, confirmed: 2 (22.2) n(%)
  Best Objective Response Rate, PR, pending confirmation: 0 (0.0) n(%)
  Best Objective Response Rate, SD (stable disease): 5 (55.6) n(%)
[5]; [13]
  Best Objective Response Rate, PD (progressive disease): 15 (12.6) n(%)
  Best Objective Response Rate, PR: 57 (47.9) n(%)
  Best Objective Response Rate, PR, confirmed: 42 (35.3) n(%)
  Best Objective Response Rate, PR, pending confirmation: 10 (8.4)* n(%)
  Best Objective Response Rate, SD (stable disease): 52 (43.7) n(%)
[5]; across studies, 11/25 patients
  ORR for patients with baseline brain metastasis: 44%
[5]; single patient, stage IV NSCLC with CNS metastasis, 300 mg once daily
  first response observed after treatment: 6 weeks
[6]; [14]
  patients with PD: 1
  patients with SD: 1
[6]; [15]
  patients with PD: 1
  patients with SD: 2
  patients with best response of PR: 1
[6]; [16]
  patients with best response of partial response (PR): 2
  patients with progressive disease (PD): 2
BTK [7]
  IC50: 0.6 nM

— patent publication US20230293535A1, “ERBB/BTK INHIBITORS” (Dizal (Jiangsu) Pharmaceutical Co., Ltd., priority 2018, published 2023)
